# From US20150023989A1, “NEW ANTIBODY DRUG CONJUGATES (ADCS) AND THE USE THEREOF” (SEATTLE GENETICS, INC., priority 2011, published 2015)
# What was measured:
# [1] = Flux assay using Caco-2 cells (cell permeability); type: in vitro ADME; details: human, 2 hours incubation
# Description: The cell permeability of a substance can be investigated by means of in vitro testing in a flux assay using Caco-2 cells [M. D. Troutman and D. R. Thakker, Pharm. Res. 20 (8), 1210-1224 (2003)]. For this purpose, the cells were cultured for 15-16 days on 24-well filter plates. For the determination of permeation, the respective working example was applied in a HEPES buffer to the cells either apically (A) or basally (B) and incubated for 2 hours. After 0 hours and after 2 hours, samples were taken from the cis and trans compartments. The samples were separated by HPLC (Agilent 1200, Böblingen, Germany) using reverse phase columns. The HPLC system was coupled via a Turbo Ion Spray Interface to a Triple Quadropol mass spectrometer API 4000 (Applied Biosystems Applera, Darmstadt, Germany). The permeability was evaluated on the basis of a Papp value, which was calculated using the formula published by Schwab et al. [D. Schwab et al., J. Med. Chem. 46, 1716-1725 (2003)].
# P-glycoprotein (P-gp) = target: T1, P-glycoprotein (P-gp) (Homo sapiens, UniProt P08183); assay: Flux assay for P-gp substrate properties in L-MDR1 cells; type: in vitro ADME; details: L-MDR1 cells (P-gp overexpressing LLC-PK1), 2 hours incubation
# T1 construct: expressed in transfected cells; host or cells: LLC-PK1 (pig kidney) cells transfected with human MDR1 (L-MDR1)
# Description: The substrate properties of a substance for P-gp (ABCB1) were determined by means of a flux assay using LLC-PK1 cells which overexpress P-gp (L-MDR1 cells) [A. H. Schinkel et al., J. Clin. Invest. 96, 1698-1705 (1995)]. For this purpose, the LLC-PK1 cells or L-MDR1 cells were cultured on 96-well filter plates for 3-4 days. For determination of the permeation, the respective test substance, alone or in the presence of an inhibitor (such as Ivermectin or Verapamil, for example), was applied in a HEPES buffer to the cells either apically (A) or basally (B) and incubated for 2 hours. After 0 hours and after 2 hours, samples were taken from the cis and trans compartments. The samples were separated by HPLC using reverse phase columns. The HPLC system was coupled via a Turbo Ion Spray Interface to a Triple Quadropole mass spectrometer API 3000 (Applied Biosystems Applera, Darmstadt, Germany). The permeability was evaluated on the basis of a Papp value which was calculated using the formula published by Schwab et al. [D. Schwab et al., J. Med. Chem. 46, 1716-1725 (2003)].
# Table 8 below lists permeability data for representative working examples from this assay, which was carried out in L-MDR1 cells: […]
# tubulin = assay: Fluorescence-based microtubule polymerisation assay; type: biochemical; details: rate at 1 μM MMAF set at 100%
# Description: Tubulin polymerization was investigated using the “Fluorescence-based Microtubule Polymerisation Assay Kit” from Cytoskeleton (Denver, Colo., USA; order number: BK011). With this assay, GTP is added to unpolymerized tubulin, allowing polymerization to take place spontaneously. The assay is based on the binding of the fluorophore 4′,6-diamidino-2-phenylindole (DAPI) to tubulin. Free and bound DAPI can be differentiated on the basis of different emission spectra.
# In addition to the buffer control, paclitaxel, with a polymerization-increasing effect, and vinblastin, with a polymerization inhibiting effect, were run additionally as assay controls. Measurement was carried out using 96-well plates with a half base area. The kinetics of the tubulin polymerization were monitored in a Fluorimeter at 37° C. for 1 hour. The excitation wavelength was 355 nm, and emission was monitored at 460 nm. For the region of linear increase within the first 10 minutes, a calculation was made of the change in fluorescence per minute (ΔF/min), which represents the polymerization rate of the microtubuli. The potency of the test substances was quantified on the basis of their respective reduction of the polymerization rate. Table 6 below gives data for the influence of representative working examples on tubulin polymerization.
# T1 sequence (P08183 whole entry): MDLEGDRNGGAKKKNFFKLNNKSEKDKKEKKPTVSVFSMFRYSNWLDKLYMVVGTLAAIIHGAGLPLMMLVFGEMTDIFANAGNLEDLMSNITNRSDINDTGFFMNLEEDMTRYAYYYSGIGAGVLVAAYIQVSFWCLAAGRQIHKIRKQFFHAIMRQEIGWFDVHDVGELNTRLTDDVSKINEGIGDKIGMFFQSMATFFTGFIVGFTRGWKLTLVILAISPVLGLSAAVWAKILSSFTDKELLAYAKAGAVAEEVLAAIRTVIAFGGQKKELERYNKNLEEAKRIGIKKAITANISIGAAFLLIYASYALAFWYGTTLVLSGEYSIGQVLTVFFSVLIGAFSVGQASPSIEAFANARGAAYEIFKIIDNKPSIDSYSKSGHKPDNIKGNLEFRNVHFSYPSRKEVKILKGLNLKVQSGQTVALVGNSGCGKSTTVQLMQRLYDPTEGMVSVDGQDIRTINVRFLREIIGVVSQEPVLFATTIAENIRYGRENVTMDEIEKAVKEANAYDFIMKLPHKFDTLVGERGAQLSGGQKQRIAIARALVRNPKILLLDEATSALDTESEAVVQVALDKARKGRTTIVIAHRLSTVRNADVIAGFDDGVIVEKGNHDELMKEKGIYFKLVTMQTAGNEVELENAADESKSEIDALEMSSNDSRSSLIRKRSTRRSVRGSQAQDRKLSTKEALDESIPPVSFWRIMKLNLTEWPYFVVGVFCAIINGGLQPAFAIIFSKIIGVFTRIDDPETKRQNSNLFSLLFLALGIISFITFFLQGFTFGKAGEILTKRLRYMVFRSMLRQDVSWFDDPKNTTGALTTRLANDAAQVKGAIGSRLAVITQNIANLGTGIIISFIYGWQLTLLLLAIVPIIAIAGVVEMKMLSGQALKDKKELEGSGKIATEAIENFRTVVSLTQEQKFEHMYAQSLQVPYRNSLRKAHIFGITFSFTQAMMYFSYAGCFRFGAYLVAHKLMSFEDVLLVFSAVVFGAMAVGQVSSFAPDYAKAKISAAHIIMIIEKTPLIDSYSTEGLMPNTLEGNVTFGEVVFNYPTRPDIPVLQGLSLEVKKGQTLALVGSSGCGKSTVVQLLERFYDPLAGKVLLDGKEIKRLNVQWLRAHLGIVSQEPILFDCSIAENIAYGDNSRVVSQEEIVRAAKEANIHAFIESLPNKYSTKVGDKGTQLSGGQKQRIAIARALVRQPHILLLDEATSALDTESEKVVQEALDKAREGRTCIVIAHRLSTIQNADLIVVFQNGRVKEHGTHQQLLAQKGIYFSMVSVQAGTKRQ
structure (smiles),measurement,setting,value
"CC[C@H](C)[C@@H]([C@@H](CC(=O)N1CCC[C@H]1[C@H](OC)[C@@H](C)C(=O)N[C@@H](Cc1c[nH]c2ccccc12)C(=O)O)OC)N(C)C(=O)[C@@H](NC(=O)[C@H](C(C)C)N(C)CCCC(=O)NNC(=O)CCCCCN1C(=O)CC(SC[C@H](N)C(=O)O)C1=O)C(C)C (stereo partly drawn) [Example 22, N-(4-{2-[6-(3-{[(2R)-2-Amino-2-carboxyethyl]sulphanyl}-2,5-dioxopyrrolidin-1-yl)hexanoyl]hydrazino}-4-oxobutyl)-N-methyl-L-valyl-N-[(3R,4S,5S)-1-{(2S)-2-[(1R,2R)-3-{[(1S)-1-carboxy-2-(1H-indol-3-yl)ethyl]amino}-1-methoxy-2-methyl-3-oxopropyl]pyrrolidin-1-yl}-3-methoxy-5-methyl-1-oxoheptan-4-yl]-N-methyl-L-valinamide]",Papp B→A at 2 h,[1],0.2 ×10⁻⁶ cm/s
same,Papp (B-A),P-glycoprotein (P-gp),0.4 ×10⁻⁶ cm/s
same,Tubulin polymerization in the presence of toxophore,tubulin; toxophore 1 μM,109%
same,Tubulin polymerization in the presence of toxophore,tubulin; toxophore 10 μM,27%
